Assay [1] has as its system lung cancer cell line Calu-6. Kind of assay: Minimal effective concentration that elicits polyploidy, Calu-6. Format: cell-based, human.
The test system of assay [2] is lung cancer cell line A549. Kind of assay: Minimal effective concentration that elicits polyploidy, A549. Format: cell-based. The following applies: Homo sapiens, read-out: MECP: Minimal effective concentration that elicits polyploidy.
Assay [3] has as its system lung cancer cell line A549. Kind of assay: MTT assay of cellular proliferation, A549. The format is cell-based. To be noted: Homo sapiens, read-out: EC50: Concentration that inhibits 50% of proliferation. The essentials: (§1)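 MTT viability assay in DMEM with 5% FBS. Cells seeded to 20–30% confluence were exposed to compound from 1 nM to 10 μM, then MTT was added for 3–4 h and formazan was read at 570 nm. EC50 is the concentration giving 50% inhibition of proliferation.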
On the technique in general: Formazan colour is commonly taken as a measure of viable cells.

The subject of assay [4] is colon cancer cell line HCT116. Kind of assay: MTT assay of cellular proliferation, HCT116. Format: cell-based. The following applies: Homo sapiens, HCT-116, read-out: EC50: Concentration that inhibits 50% of proliferation. In outline: as §1
For assay [5], the system named is lung cancer cell line NCI-H596. Kind of assay: Minimal effective concentration that elicits polyploidy, NCI-H596. The format is cell-based, human.
In assay [6] the test system is liver cancer cell line T2 HCC. Kind of assay: Minimal effective concentration that elicits polyploidy, T2 HCC. Format: cell-based. The following applies: Mus musculus, read-out: MECP: Minimal effective concentration that elicits polyploidy.
Assay [7] concerns lung cancer cell line Calu-6. Kind of assay: MTT assay of cellular proliferation, Calu-6. To be noted: Homo sapiens, read-out: EC50: Concentration that inhibits 50% of proliferation. Format: cell-based. On the procedure: (§2) Six lung cancer cell lines (NCI-H23, NCI-H460, NCI-H596, NCI-H2170, Calu-6 and A549), two colon cancer cell lines (HCT116 and SW460), one breast cancer cell line MDA-MB-231, one gastric cancer cell line NCI-N87, one prostate cancer cell line DU145, one cervical cancer cell line Hela, and one glioblastoma cell line T98G were obtained from ATCC. The T2 HCC cell line was derived from a mouse liver cancer model initiated by a transgene of MYC (Reference). All cell lines were cultured in DMEM (Gibco, Cleveland, TN, USA) supplemented with 5% fetal bovine serum (Gibco), penicillin (100 U/mL)-streptomycin (100 μg/mL) (Gibco, Cat. No. 15140-122), 2 mM L-glutamine (Gibco, 200 mM solution, Cat. No. 25030081), and 1 mM sodium pyruvate (Gibco, 100 mM solution, Cat. No. 11360070) at 37° C. in a humidified incubator that was maintained at 5% CO2.
(§3) The MTT assay measures cellular metabolic activity as a proxy for cell viability and involves the conversion of the water-soluble yellow dye MTT [3-(4,5-dimethylthiazol-2-yl)-2,5-diphenyltetrazolium bromide] into an insoluble purple formazan by the action of mitochondrial reductase. Formazan is then solubilized and its concentration is determined by measuring the optical density (OD) value at a wavelength of 570 nm. The value is in proportional to the number of live cells with excellent linearity up to ˜10^6 cells per well. The MTT assay was used to determine the EC50 value, the concentration of a compound that leads to 50% inhibition of cellular proliferation. Briefly, cells were split when growing to the mid-Log phase. Cells in 100 μL of culture medium were seeded into each well of 96-well microplates and cultivated for 15˜24 hours to reach a confluence of 20˜30% and were then exposed to drugs at concentrations ranging from 1 nM to 10 μM. At the endpoint, 20 μL of a MTT stock solution in DMSO (5 mg/mL) was added to each well that contains […] of DMEM. The microplates were left in the cell culture incubator for 3˜4 h before subjected to solubilization and determination of formazan at A570 in a microplate reader (BioTek ELX808iu). […] Therefore, these compounds might hold a broad utility in the treatment of a large variety of human malignancies.

The test system of assay [8] is prostate cancer cell line DU145. Put plainly: MTT assay of cellular proliferation, DU145. Format: cell-based. To be noted: Homo sapiens, DU-145, read-out: EC50: Concentration that inhibits 50% of proliferation. Here is the method: as §2, §3
Assay [9] concerns colon cancer cell line HCT116. Put plainly: Minimal effective concentration that elicits polyploidy, HCT116. Format: cell-based. To be noted: Homo sapiens, HCT-116, read-out: MECP: Minimal effective concentration that elicits polyploidy.
The subject of assay [10] is human lung cancer cell line NCI-H23. Kind of assay: Soft agar colony formation assay, NCI-H23. Format: cell-based. The following applies: NCI-H23, 3D culture, FIG. 2. On the procedure: as §2
Measuring the ability of cells to grow in soft agar has been popularly believed as the gold standard assay for cellular transformation in vitro. In the Soft Agar Assay, cells grow from single cells to cell colonies in a semi-solid agar solution that keeps them away from the solid surface and allows growth in an anchorage-independent way.
The anchorage-independent growth of cells is one of the hallmarks of cancer cells. Normal epithelial cells are supported by basement membranes that provide survival and proliferative signals while undergo a type of apoptosis called anoikis when lose their attachment to the extracellular matrix. Cancer cells, in contrast, evade attachment-induced apoptosis, leading to uncontrolled proliferation and metastasis. The Soft Agar Colony Formation Assay allows testing of the therapeutic efficacy of compounds against anchorage-independent 3D growth of cancer cells in vitro. The assay was performed in 6-well plates with two layers of agar. For the first, 0.75% agar in DMEM medium was melted in a microwave oven and poured to form a bottom layer. […] Cell culture medium was changed once every two days until colonies were ready to photograph. […]

Assay [11] deals with glioblastoma cell line T98G. Kind of assay: MTT assay of cellular proliferation, T98G. The following applies: Homo sapiens, read-out: EC50: Concentration that inhibits 50% of proliferation. The format is cell-based. Here is the method:
as §2, §3

Assay [12] deals with gastric cancer cell line NCI-N87. Kind of assay: MTT assay of cellular proliferation, NCI-N87. The format is cell-based. To be noted: Homo sapiens, read-out: EC50: Concentration that inhibits 50% of proliferation. In outline: as §1
Assay [13] concerns lung cancer cell line NCI-H2170. Put plainly: Minimal effective concentration that elicits polyploidy, NCI-H2170. Format: cell-based, human.
For assay [14], the system named is breast cancer cell line MDA-MB-231. Kind of assay: Minimal effective concentration that elicits polyploidy, MDA-MB-231. Format: cell-based. To be noted: Homo sapiens, read-out: MECP: Minimal effective concentration that elicits polyploidy.
Assay [15] shares this test system. Kind of assay: MTT assay of cellular proliferation, MDA-MB-231. Format: cell-based. The following applies: Homo sapiens, read-out: EC50: Concentration that inhibits 50% of proliferation. In outline:
as §1

The test system of assay [16] is cervical cancer cell line Hela. Put plainly: Minimal effective concentration that elicits polyploidy, Hela. To be noted: Homo sapiens, read-out: MECP: Minimal effective concentration that elicits polyploidy. The format is cell-based.
Assay [17] relates to RPEMYC^H2B-GFP cells. Put plainly: Mechanism-informed phenotypic screening assay (mitotic arrest, polyploidy; GE IN-Cell Analyzer 2000). The format is cell-based. The following applies: 20 nM to 20 μM, 24, 48 or 72 hours, read-out: Mitotic Arrest (≥5%).
For assay [18], the system named is gastric cancer cell line NCI-N87. Kind of assay: Minimal effective concentration that elicits polyploidy, NCI-N87. The format is cell-based. To be noted: Homo sapiens, read-out: MECP: Minimal effective concentration that elicits polyploidy.

The values below come from US20240262803A1, “COMPOUNDS, COMPOSITIONS AND METHODS OF TREATING DISORDERS” (Chungdu Anticancer Bioscience Ltd, priority 2021, published 2024).

The structures appear in SMILES notation. “Also recorded” adds a separate entry of the source.

Consider `COC(=O)c1cc(Oc2ncccc2-c2ccncc2)cc(C(=O)OC)c1` [Compound 1, Dimethyl 5-([3,4′-bipyridin]-2-yloxy)isophthalate], for which the “MECP: Minimal effective concentration that elicits polyploidy” value in assay [1], in [5] and in assay [13] was “A (A: 1 nM < conc. ≤ 1 μM)” in each case. The minimal effective concentration in [2] is 1 to 10 µM; in [6] it was 0.001 to 1 µM; in [9], 0.001 to 1 µM; in assay [14], 0.001 to 1 µM; in assay [16], 0.001 to 1 µM; in [17], 1 µM. For the same compound, the minimal effective concentration in assay [18] was in the range of 0.001 to 1 µM. Moreover, the EC50 is 10 to 30 µM in assay [3]; 0.001 to 1 µM in assay [4]; 0.001 to 1 µM in [7]; 0.001 to 1 µM in assay [8]; 0.001 to 1 µM in [11]; 0.001 to 1 µM in [12]. For the same compound, the EC50 in assay [15] lay within 0.001 to 1 µM. Moreover, the “anchorage-independent growth in soft agar” value (shortened to “anchorage-independent growth”) in assay [10] is listed as “completely blocked the growth”.

As for `COC(=O)c1cc(Oc2ncccc2-c2ccnc(N)n2)cc(C(=O)OC)c1` [Compound 21, dimethyl 5-((3-(2-aminopyrimidin-4-yl)pyridin-2-yl)oxy)isophthalate], the “MECP: Minimal effective concentration that elicits polyploidy” value in assay [1], in assay [5] and in [13] was “A (A: 1 nM < conc. ≤ 1 μM)” each time. Also, the EC50 in assay [4] was in the range of 0.001 to 1 µM; in [7] it was 0.001 to 1 µM; in [8], 0.001 to 1 µM; in assay [11] it was 1 to 10 µM; in assay [12] it was 0.001 to 1 µM; in [15], 0.001 to 1 µM. Also, the minimal effective concentration in assay [6] was 0.001 to 1 µM; in assay [9], 0.001 to 1 µM; in [14], 0.001 to 1 µM; in assay [16], 0.001 to 1 µM; in assay [17] it was 1 µM; in assay [18], 0.001 to 1 µM.

Consider `COC(=O)c1cc(OC)cc(Oc2ncccc2-c2ccncc2)c1` [Compound 2, Methyl 3-([3,4′-bipyridin]-2-yloxy)-5-methoxybenzoate], for which the “MECP: Minimal effective concentration that elicits polyploidy” value in assay [1], in assay [5] and in [13] was “A (A: 1 nM < conc. ≤ 1 μM)” in each case. Besides, the minimal effective concentration in assay [2] was 1 to 10 µM; in assay [6], 0.001 to 1 µM; in [9], 0.001 to 1 µM; in assay [14], 0.001 to 1 µM; in assay [16], 0.001 to 1 µM; in assay [17], 1 µM. The minimal effective concentration in assay [18] was 0.001 to 1 µM. Moreover, the EC50 was in the range of 10 to 30 µM in [3]; 0.001 to 1 µM in assay [4]; 0.001 to 1 µM in [7]; 0.001 to 1 µM in assay [8]; 0.001 to 1 µM in [11]; 0.001 to 1 µM in assay [12]. For the same compound, the EC50 in assay [15] was in the range of 0.001 to 1 µM. The “anchorage-independent growth” value in [10] was “Suppresses the Anchorage-independent Growth; also recorded: completely blocked the growth”.

`COC(=O)c1cc(OC)cc(Oc2ncccc2-c2ccnc(N)n2)c1` [Compound 23, Methyl 3-((3-(2-aminopyrimidin-4-yl)pyridin-2-yl)oxy)-5-methoxybenzoate]: the “MECP: Minimal effective concentration that elicits polyploidy” value in assay [1], in [5] and in [13] was “A (A: 1 nM < conc. ≤ 1 μM)” in each case. Further, the minimal effective concentration was 1 to 10 µM in assay [2]; 0.001 to 1 µM in assay [6]; 0.001 to 1 µM in assay [9]; 0.001 to 1 µM in [14]; 0.001 to 1 µM in assay [16]; 1 µM in assay [17]. Also, the minimal effective concentration in [18] lay in the range of 0.001 to 1 µM. Also, the EC50 in [3] was in the range of 10 to 30 µM; in assay [4], 0.001 to 1 µM; in assay [7], 0.001 to 1 µM; in [8], 0.001 to 1 µM; in [11], 10 to 30 µM; in [12] it was 0.001 to 1 µM. Moreover, the EC50 in assay [15] is 0.001 to 1 µM. The “anchorage-independent growth” value in assay [10] is “Suppress the Anchorage-independent Growth; also recorded: completely blocked the growth”.
